Measured values as given in patent US20080090834A1, “SELECTIVE AZOLE PDE10A INHIBITOR COMPOUNDS” (Pfizer Inc, priority 2006, published 2008).
Counter-ions that a name gives are not always drawn.

Molecular target: T1, cloned rat PDE10A full-length enzyme (Rattus norvegicus, UniProt Q9QYJ6)
T1 construct: cloned rat PDE10A full-length enzyme grown in transfected Sf9 insect cells; made in house; host or cells: Sf9 insect cells
T1 sequence (Q9QYJ6 1-794): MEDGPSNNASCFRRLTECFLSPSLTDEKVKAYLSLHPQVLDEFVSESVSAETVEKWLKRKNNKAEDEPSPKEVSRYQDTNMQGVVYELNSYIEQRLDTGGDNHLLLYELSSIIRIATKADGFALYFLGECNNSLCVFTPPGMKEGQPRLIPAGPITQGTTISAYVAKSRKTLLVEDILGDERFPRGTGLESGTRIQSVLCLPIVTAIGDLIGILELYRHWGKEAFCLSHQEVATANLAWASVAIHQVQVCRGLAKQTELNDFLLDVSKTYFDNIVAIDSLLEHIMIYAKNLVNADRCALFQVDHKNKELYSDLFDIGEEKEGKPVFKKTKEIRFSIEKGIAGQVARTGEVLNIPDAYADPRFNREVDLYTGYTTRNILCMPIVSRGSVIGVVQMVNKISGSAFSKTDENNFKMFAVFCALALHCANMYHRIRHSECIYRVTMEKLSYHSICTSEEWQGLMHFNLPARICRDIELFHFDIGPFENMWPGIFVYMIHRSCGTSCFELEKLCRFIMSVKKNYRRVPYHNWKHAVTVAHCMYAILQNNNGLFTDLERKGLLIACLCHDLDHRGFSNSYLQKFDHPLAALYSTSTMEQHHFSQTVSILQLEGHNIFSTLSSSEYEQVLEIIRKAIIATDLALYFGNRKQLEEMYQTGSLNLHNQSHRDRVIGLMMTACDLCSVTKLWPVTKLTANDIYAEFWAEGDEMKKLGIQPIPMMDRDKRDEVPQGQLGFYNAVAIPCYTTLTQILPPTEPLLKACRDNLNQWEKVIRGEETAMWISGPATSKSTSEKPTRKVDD
Experiment: PDE10 enzyme inhibition, [3H]cAMP scintillation proximity assay
Assay type: biochemical
Details: rat PDE10A from Sf9 cells, 20 nM [3H]cAMP, SPA beads, 20 minute incubation at room temperature
How it was run: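 Full-length rat PDE10A from Sf9 cells hydrolysed 20 nM [3H]cAMP in 50 mM Tris, 8.3 mM MgCl2, pH 7.5, 2% DMSO, for 20 minutes at room temperature (<10% conversion). Yttrium silicate SPA beads with zinc sulphate stopped the reaction and captured [3H]AMP; 1 uM papaverine defined non-specific binding, vehicle defined total conversion.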

| Structure (SMILES) | IC50 [nM] |
| --- | --- |
| c1ccc(-c2cn(-c3cccnc3)c(-c3ccc(-n4ccc5cccnc54)cc3)n2)nc1 [Example 7, 1-(4-(4-(pyridin-2-yl)-1-(pyridin-3-yl)-1H-imidazol-2-yl)phenyl)-1H-pyrrolo[2,3-b]pyridine] | 6.84 |
| Cc1ccc(-n2cc(-c3cscn3)nc2-c2ccc(-n3c(C(F)(F)F)nc4cccnc43)cc2)cn1 [Example 99, 2-(trifluoromethyl)-3-(4-(1-(6-methylpyridin-3-yl)-4-(thiazol-4-yl)-1H-imidazol-2-yl)phenyl)-3H-imidazo[4,5-b]pyridine] | 1.54 |
| Cc1cc(-n2cc(-c3nccn3C)nc2-c2ccc(-n3ccc4cccnc43)cc2)ccn1 [Example 66, 1-(4-(4-(1-methyl-1H-imidazol-2-yl)-1-(2-methylpyridin-4-yl)-1H-imidazol-2-yl)phenyl)-1H-pyrrolo[2,3-b]pyridine] | 112 |
| On1c(-c2cccs2)nc(-c2ccc(-n3ccc4cccnc43)cc2)c1-c1cnccn1 [Example 104, 1-(4-(1-hydroxy-5-(pyrazin-2-yl)-2-(thiophen-2-yl)-1H-imidazol-4-yl)phenyl)-1H-pyrrolo[2,3-b]pyridine] | < 2.45 |
| Cc1ccc(-n2cc(-c3cccc[n+]3[O-])nc2-c2ccc(-n3ccc4cccnc43)cc2)c[n+]1[O-] [Example 15] | 16.4 |
| Cc1ccc(-n2cc(-c3ccccn3)nc2-c2ccc(-n3ccc4cccnc43)cc2C)cn1 [Example 13, 1-(3-methyl-4-(1-(6-methylpyridin-3-yl)-4-(pyridin-2-yl)-1H-imidazol-2-yl)phenyl)-1H-pyrrolo[2,3-b]pyridin] | 37.1 |
| c1ccc(-c2cn(-c3cccnc3)c(-c3ccc(-n4c(-c5ccccn5)nc5ccccc54)cc3)n2)nc1 [Example 43, 2-(pyridin-2-yl)-1-(4-(4-(pyridin-2-yl)-1-(pyridin-3-yl)-1H-imidazol-2-yl)phenyl)-1H-benzo[d]imidazole] | 33.1 |
| c1ccc(-c2nc(-c3ccc(-n4ccc5cccnc54)cc3)n(-c3cccnc3)n2)nc1 [Preparation 123, 1-(4-(5-(pyridin-2-yl)-2-(pyridin-3-yl)-2H-1,2,4-triazol-3-yl)phenyl)-1H-pyrrolo[2,3-b]pyridine] | 26.2 |
| COc1ccc(-n2cc(-c3nccs3)nc2-c2ccc(-n3ccc4cccnc43)cc2)cc1 [Example 2, 1-(4-(1-(4-methoxyphenyl)-4-(thiazol-2-yl)-1H-imidazol-2-yl)phenyl)-1H-pyrrolo[2,3-b]pyridine] | 156 |
| c1cncc(-n2cc(-c3nccs3)nc2-c2ccc(-n3ccc4cccnc43)cc2)c1 [Example 23, 1-(4-(1-(pyridin-3-yl)-4-(thiazol-2-yl)-1H-imidazol-2-yl)phenyl)-1H-pyrrolo[2,3-b]pyridine] | 3.32 |
| Clc1ccc(-c2ccc(-c3nc(-c4ccccn4)cn3-c3cncnc3)cc2)cc1Cl [Example 70, 5-(2-(4-(3,4-dichloropheny)phenyl)-4-(pyridin-2-yl)-1H-imidazol-1-yl)pyrimidine] | 216 |
| COc1nc2cccnc2n1-c1ccc(-c2nc(-c3ccccn3)cn2-c2ccc(C)nc2)cc1 [Example 60, 2-methoxy-3-(4-(1-(6-methylpyridin-3-yl)-4-(pyridin-2-yl)-1H-imidazol-2-yl)phenyl)-3H-imidazo[4,5-b]pyridine] | 0.388 |
| Fc1cccc2ccn(-c3ccc(-c4nc(-c5ccccn5)cn4-c4cccnc4)cc3)c12 [Example 37] | 30.8 |
| COc1nc2cccnc2n1-c1ccc(-c2nc(-c3nccs3)cn2-c2ccc(C)nc2)cc1 [Example 81, 2-methoxy-3-(4-(1-(6-methylpyridin-3-yl)-4-(thiazol-2-yl)-1H-imidazol-2-yl)phenyl)-3H-imidazo[4,5-b]pyridine] | 0.33 |
| c1ccc(-c2cn(-c3cncnc3)c(-c3ccc(-c4ccncc4)cc3)n2)nc1 [Example 73] | 74.3 |
| CCOc1nc2cccnc2n1-c1ccc(-c2nc(-c3ccccn3)cn2-c2ccc(C)nc2)cc1 [Example 94, 2-ethoxy-3-(4-(1-(6-methylpyridin-3-yl)-4-(pyridin-2-yl)-1H-imidazol-2-yl)phenyl)-3H-imidazol[4,5-b]pyridine] | 1.02 |
| Clc1cccc2c1ccn2-c1ccc(-c2nc(-c3ccccn3)cn2-c2cccnc2)cc1 [Example 39, 4-chloro-1-(4-(4-(pyridin-2-yl)-1-(pyridin-3-yl)-1H-imidazol-2-y TFA salt] | 113 |
| Cc1ccc(-n2cc(-c3ccccn3)nc2-c2ccc(-n3c(C)nc4cccnc43)cc2)cn1 [Example 57, 2-methyl-3-(4-(1-(6-methylpyridin-3-yl)-4-(pyridin-2-yl)-1H-imidazol-2-yl)phenyl)-3H-imidazo[4,5-b]pyridine] | 1.89 |
| CCOc1nc2cccnc2n1-c1ccc(-c2nc(-c3cscn3)cn2-c2ccc(C)nc2)cc1 [Example 100, 2-ethoxy-3-(4-(1-(6-methylpyridin-3-yl)-4-(thiazol-4-yl)-1H-imidazol-2-yl)phenyl)-3H-imidazo[4,5-b]pyridine] | 1.31 |
| c1ccc(-c2cn(-c3cccnc3)c(-c3ccc(-n4cnc5ccccc54)cc3)n2)nc1 [Example 45, 1-(4-(4-(pyridin-2-yl)-1-(pyridin-3-yl)-1H-imidazol-2-yl)phenyl)-1H-benzo[d]imidazole] | 97.8 |
| c1ccc(-c2cn(-c3cccnc3)c(-c3ccc(-n4cnc5ncccc54)cc3)n2)nc1 (single isomer, unassigned) [Example 46, 1-(4-(4-(pyridin-2-yl)-1-(pyridin-3-yl)-1H-imidazol-2-yl)phenyl)-1H-imidazo[4,5-b]pyridine bis-trifluororoacetic acid salt] | 231 |

Tested on: not given
Experiment: not given
Details: not given

| Structure (SMILES) | melting point [°C] |
| --- | --- |
| c1ccc(-c2cn(-c3cccnc3)c(-c3ccc(-n4ccc5cccnc54)cc3)n2)nc1 [Example 7, 1-(4-(4-(pyridin-2-yl)-1-(pyridin-3-yl)-1H-imidazol-2-yl)phenyl)-1H-pyrrolo[2,3-b]pyridine] | 174 to 176 |
| Cc1ccc(-n2cc(-c3cscn3)nc2-c2ccc(-n3c(C(F)(F)F)nc4cccnc43)cc2)cn1 [Example 99, 2-(trifluoromethyl)-3-(4-(1-(6-methylpyridin-3-yl)-4-(thiazol-4-yl)-1H-imidazol-2-yl)phenyl)-3H-imidazo[4,5-b]pyridine] | 201 to 204 |
| c1cncc(-n2cc(-c3nccs3)nc2-c2ccc(-n3ccc4cccnc43)cc2)c1 [Example 23, 1-(4-(1-(pyridin-3-yl)-4-(thiazol-2-yl)-1H-imidazol-2-yl)phenyl)-1H-pyrrolo[2,3-b]pyridine] | 195 to 197 |
| COc1nc2cccnc2n1-c1ccc(-c2nc(-c3nccs3)cn2-c2ccc(C)nc2)cc1 [Example 81, 2-methoxy-3-(4-(1-(6-methylpyridin-3-yl)-4-(thiazol-2-yl)-1H-imidazol-2-yl)phenyl)-3H-imidazo[4,5-b]pyridine] | 190 to 192 |
